Experimental data as given in patent US8614339B2, “Dimeric derivatives of artemisinin and application in anti-cancer therapy” (Pierre Fabre Medicament, priority 2008, dated 2013).

How the values were obtained:
[1] = system: Namalwa cell line (lymphoma); assay: Cytotoxic activity: inhibition of cell proliferation, ATPLite luminescence of residual ATP after 72 hours; assay type: cell-based; conditions: Namalwa human lymphoma cell line, 72 hours of incubation, read-out: IC50 (expressed in nM) Namalwa
Experimental: (§1) The cytotoxic activity of the compounds of the invention was evaluated by measuring inhibition of cell proliferation of human tumour cell lines, such as the A549 cell line (lung) and the Namalwa cell line (lymphoma). This activity is expressed by IC50, the concentration of the product tested able to inhibit cell proliferation by 50%. The method employed is measurement by luminescence of residual ATP after 72 hours of incubation using the ATPLite® kit sold by Perkin Elmer, as described in the following publication: “Measurement of cytotoxicity by ATP-based luminescence assay in primary cell cultures and cell lines.” I. A. Cree, P. E. Andreotti, Toxicology in Vitro, 11, 553-6, (1997).
(§2) As an example, the cytotoxic properties of a few of the compounds of the invention evaluated on A549 and Namalwa cell lines are presented in the following table: […]

A549 cell line (lung) = assay: as above; assay type: cell-based; conditions: A549 human lung tumour cell line, 72 hours of incubation, read-out: IC50 (expressed in nM) A549
Experimental: as §1, §2

Compound | IC50 [1] | IC50 (A549 cell line (lung))
C[C@@H]1CC[C@H]2C(COCCCO[C@@]3(C(F)(F)F)O[C@@H]4OC5(C)CCC6[C@H](C)CC[C@@H]([C@H]3C)[C@]64OO5)=C(C(F)(F)F)O[C@@H]3OC4(C)CCC1[C@]32OO4 (stereo partly drawn) [Compound 1] | 6.8 nM | 5.2 nM
C[C@@H]1CC[C@H]2C(COCCO[C@@]3(C(F)(F)F)O[C@@H]4OC5(C)CCC6[C@H](C)CC[C@@H]([C@H]3C)[C@]64OO5)=C(C(F)(F)F)O[C@@H]3OC4(C)CCC1[C@]32OO4 (stereo partly drawn) [Compound 2] | 27 nM | 25 nM
C[C@@H]1CC[C@H]2C(COCCCCO[C@@]3(C(F)(F)F)O[C@@H]4OC5(C)CCC6[C@H](C)CC[C@@H]([C@H]3C)[C@]64OO5)=C(C(F)(F)F)O[C@@H]3OC4(C)CCC1[C@]32OO4 (stereo partly drawn) [Compound 3] | 5.5 nM | 6.7 nM
C[C@@H]1CC[C@H]2C(COCc3cccc(CO[C@@]4(C(F)(F)F)O[C@@H]5OC6(C)CCC7[C@H](C)CC[C@@H]([C@H]4C)[C@]75OO6)n3)=C(C(F)(F)F)O[C@@H]3OC4(C)CCC1[C@]32OO4 (stereo partly drawn) [Compound 4] | 19 nM | 27 nM
C[C@@H]1CC[C@H]2C(Cn3nncc3CO[C@@]3(C(F)(F)F)O[C@@H]4OC5(C)CCC6[C@H](C)CC[C@@H]([C@H]3C)[C@]64OO5)=C(C(F)(F)F)O[C@@H]3OC4(C)CCC1[C@]32OO4 (stereo partly drawn) [Compound 7] | 30 nM | 45 nM
C[C@@H]1CC[C@H]2C(COC/C=C/CO[C@@]3(C(F)(F)F)O[C@@H]4OC5(C)CCC6[C@H](C)CC[C@@H]([C@H]3C)[C@]64OO5)=C(C(F)(F)F)O[C@@H]3O[C@@]4(C)CCC1[C@]32OO4 (stereo partly drawn) [Compound 8] | 13 nM | 27 nM
C[C@@H]1CC[C@H]2C(CNCCO[C@@]3(C(F)(F)F)O[C@@H]4OC5(C)CCC6[C@H](C)CC[C@@H]([C@H]3C)[C@]64OO5)=C(C(F)(F)F)O[C@@H]3O[C@@]4(C)CCC1[C@]32OO4 (stereo partly drawn) [Compound 10] | 19 nM | 27 nM
C[C@@H]1CC[C@H]2[C@@H](C)[C@](OCCCCCOCC3=C(C(F)(F)F)O[C@@H]4O[C@@]5(C)CC[C@H]6[C@H](C)CC[C@@H]3[C@@]46OO5)(C(F)(F)F)O[C@@H]3O[C@@]4(C)CC[C@@H]1[C@]32OO4 [Compound 16] | 42 nM | 19 nM
C[C@@H]1CC[C@H]2[C@@H](C)[C@](OCCCCCN(C)CC3=C(C(F)(F)F)O[C@@H]4O[C@@]5(C)CC[C@H]6[C@H](C)CC[C@@H]3[C@@]46OO5)(C(F)(F)F)O[C@@H]3O[C@@]4(C)CC[C@@H]1[C@]32OO4 [Compound 22] | 83 nM | 46 nM
